One experiment addresses T1, human PI3Kα protein (Homo sapiens, UniProt P42336).
T1 construct: purchased Carna Biosciences, Inc; host or cells: baculovirus expression system
Put plainly: PI3Kα enzyme assay (ADP-Glo). Format: biochemical. The following applies: read-out: PI3Kα enzyme inhibitory activity. Here is the method:
In a PI3Kα enzyme assay, a product (manufactured by Carna Biosciences, Inc.) obtained by biotinylating a human PI3Kα protein produced by using a baculovirus expression system was used. In addition, in the detection of enzyme activity, ADP-GLO KINASE ASSAY (trade name, manufactured by PROMEGA Corporation) was used.
10 μL of a reaction liquid (4.5 nmol/L PI3Kα, 40 mmol/L Tris-HCl, 20 mmol/L MgCl2, 0.1% BSA, pH 7.5) including the human PI3Kα protein and a test compound having a predetermined concentration was allowed to stand at room temperature for 15 minutes. Then, 5 μL of a mixture liquid of L-α-phosphatidylinositol 4,5-diphosphate (PIP2) (manufactured by Sigma-Aldrich Co. LLC.) and ATP (manufactured by Sigma-Aldrich Co. LLC.), which are substrates, was added thereto such that final concentrations thereof became 50 μmol/L and 100 μmol/L, respectively, and an enzyme reaction was performed by allowing to stand at 25° C. for 60 minutes.
After the reaction, the enzyme reaction was stopped by adding 15 μL of an ADP-GLO REAGENT (trade name, manufactured by PROMEGA Corporation) thereto and allowing to stand at room temperature for 60 minutes. Then, 30 μL of a KINASE DETECTION REAGENT (trade name, manufactured by PROMEGA Corporation) was added thereto, followed by allowing to stand at room temperature for 40 minutes, and ADP produced by the enzyme reaction was quantified by emission intensity.
ENVISION (trade name, manufactured by Perkin Elmer Inc.) was used for the measurement of the emission intensity.
(§1) The inhibitory activities of the compounds were evaluated using IC50 (50% inhibitory concentration). The IC50 was calculated using XLFIT (trade name, manufactured by ID Business Solutions).

The target in experiment [1] is T2, GST fusion human ERK2 protein (Homo sapiens, UniProt P28482).
T2 construct: purchased Carna Biosciences, Inc; host or cells: E. coli expression system
T2 sequence (P28482 whole entry, the tested form may be a part): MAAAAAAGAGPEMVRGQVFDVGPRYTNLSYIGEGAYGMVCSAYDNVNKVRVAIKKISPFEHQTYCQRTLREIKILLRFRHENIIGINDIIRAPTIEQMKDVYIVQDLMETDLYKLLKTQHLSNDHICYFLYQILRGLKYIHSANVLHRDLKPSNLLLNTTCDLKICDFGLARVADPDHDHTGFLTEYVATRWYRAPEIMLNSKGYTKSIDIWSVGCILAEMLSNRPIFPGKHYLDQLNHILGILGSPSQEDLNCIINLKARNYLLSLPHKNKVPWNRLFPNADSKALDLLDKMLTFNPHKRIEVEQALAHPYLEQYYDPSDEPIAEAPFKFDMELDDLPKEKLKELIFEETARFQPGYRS
Put plainly: ERK2 enzyme assay (2). It is filed as biochemical. The following applies: ERK2 enzyme assay (2); read-out: ERK2 enzyme inhibitory activity (2). The procedure:
In an ERK2 enzyme assay, GLUTATHIONE S-TRANSFERASE (GST) FUSION HUMAN ERK2 PROTEIN (manufactured by Carna Biosciences, Inc.), which was produced by using an E. coli expression system, was used.
12 μL of a reaction liquid (1.25 nmol/L ERK2, 100 mmol/L Hepes, 10 mmol/L MgCl2, 1.5 mmol/L DTT, 0.003% Brij35, pH 7.5) including ERK2 protein and a test compound having a predetermined concentration was allowed to stand at room temperature for 15 minutes. Then, 3 μL of a mixture liquid of FL-PEPTIDE8 (5-FAM-IPTSPITTTYFFFKKK-COOH) (manufactured by Caliper Life Sciences), which is substrate peptide, and ATP (manufactured by Sigma-Aldrich Co. LLC.) was added thereto such that the final concentrations thereof became 4.25 μmol/L and 1 mmol/L, respectively, and an enzyme reaction was performed by allowing to stand at 25° C. for 120 minutes.
After the reaction, the enzyme reaction was stopped by adding 30 μL of a reaction stopper liquid (100 mmol/L HEPES, 11.2 mmol/L EDTA, 5.6% Brij35, pH 7.5) including a 0.5% COATING REAGENT 8 (trade name, manufactured by Perkin Elmer Inc.) thereto. Then, phosphorylated peptide and non-phosphorylated peptide were separated using LABCHIP EZ READER (trade name, manufactured by Caliper Life Sciences), and the porportion of the phosphorylated peptide was quantified.
as §1

T1 sequence (P42336 whole entry): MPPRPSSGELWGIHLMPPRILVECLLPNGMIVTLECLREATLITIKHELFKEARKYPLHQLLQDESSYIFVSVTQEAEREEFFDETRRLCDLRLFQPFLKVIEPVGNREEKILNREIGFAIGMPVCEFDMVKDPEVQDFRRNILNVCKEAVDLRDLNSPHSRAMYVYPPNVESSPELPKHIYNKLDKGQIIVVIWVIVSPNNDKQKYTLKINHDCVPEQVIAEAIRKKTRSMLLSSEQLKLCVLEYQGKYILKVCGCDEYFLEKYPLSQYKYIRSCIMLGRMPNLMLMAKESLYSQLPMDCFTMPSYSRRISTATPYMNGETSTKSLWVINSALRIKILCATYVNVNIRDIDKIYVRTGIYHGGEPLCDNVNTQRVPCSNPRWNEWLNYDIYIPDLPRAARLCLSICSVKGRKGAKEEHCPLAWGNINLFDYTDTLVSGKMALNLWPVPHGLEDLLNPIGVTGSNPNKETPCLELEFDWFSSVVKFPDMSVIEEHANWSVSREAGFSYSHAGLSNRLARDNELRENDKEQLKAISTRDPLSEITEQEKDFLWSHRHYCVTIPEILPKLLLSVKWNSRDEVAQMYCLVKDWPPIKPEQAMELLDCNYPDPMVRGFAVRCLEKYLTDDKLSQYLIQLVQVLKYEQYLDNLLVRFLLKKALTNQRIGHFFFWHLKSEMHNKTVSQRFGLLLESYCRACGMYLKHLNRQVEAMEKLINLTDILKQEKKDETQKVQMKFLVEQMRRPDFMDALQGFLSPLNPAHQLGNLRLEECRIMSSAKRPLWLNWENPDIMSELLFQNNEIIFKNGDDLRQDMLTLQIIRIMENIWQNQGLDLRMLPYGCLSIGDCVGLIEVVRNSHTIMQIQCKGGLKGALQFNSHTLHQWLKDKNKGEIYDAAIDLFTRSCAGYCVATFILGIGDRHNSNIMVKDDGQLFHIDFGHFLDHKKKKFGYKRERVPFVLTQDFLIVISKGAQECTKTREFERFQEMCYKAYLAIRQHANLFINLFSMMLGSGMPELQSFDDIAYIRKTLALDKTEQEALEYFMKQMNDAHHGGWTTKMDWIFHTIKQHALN
T1 sequence (P27986 whole entry partner): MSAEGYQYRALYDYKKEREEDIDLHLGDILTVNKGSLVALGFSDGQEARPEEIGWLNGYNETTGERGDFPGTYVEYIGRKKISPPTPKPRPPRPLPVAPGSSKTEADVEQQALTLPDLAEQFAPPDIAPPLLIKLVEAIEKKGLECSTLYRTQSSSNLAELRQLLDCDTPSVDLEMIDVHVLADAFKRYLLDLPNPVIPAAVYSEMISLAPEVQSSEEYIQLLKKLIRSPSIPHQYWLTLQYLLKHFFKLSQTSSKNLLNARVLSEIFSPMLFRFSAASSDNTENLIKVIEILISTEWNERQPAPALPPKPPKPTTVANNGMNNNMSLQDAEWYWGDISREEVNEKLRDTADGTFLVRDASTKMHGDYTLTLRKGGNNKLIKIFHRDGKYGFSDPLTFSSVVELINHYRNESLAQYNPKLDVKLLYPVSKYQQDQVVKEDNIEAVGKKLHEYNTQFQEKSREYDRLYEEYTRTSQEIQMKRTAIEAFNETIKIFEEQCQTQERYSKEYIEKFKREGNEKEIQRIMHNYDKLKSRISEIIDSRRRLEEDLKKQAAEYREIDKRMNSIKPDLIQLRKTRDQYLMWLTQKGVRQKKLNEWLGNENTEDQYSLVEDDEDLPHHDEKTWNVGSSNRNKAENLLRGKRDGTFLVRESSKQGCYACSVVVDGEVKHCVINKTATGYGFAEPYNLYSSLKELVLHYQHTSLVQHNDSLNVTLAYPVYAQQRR

As to `CC(=O)N1CCN(CCCn2cc(-c3cnc4ccc(Nc5cc(C(C)C)cnn5)nc4c3)cn2)CC1` [Example 0434], the IC50 (on human PI3Kα protein; in experiment [1]) was under 1000 nM throughout.

As to `CC(=O)N1[C@H](C)CN(CCCn2cc(-c3cnc4ccc(Nc5cc(C(C)C)cnn5)nc4c3)cn2)C[C@@H]1C` [Example 0435], the IC50 (at human PI3Kα protein; in experiment [1]) was under 1000 nM each time.

For `CC(C)c1cnnc(Nc2ccc3ncc(-c4cnn(CCCN5C[C@@H](C)N(C(=O)N(C)C)[C@@H](C)C5)c4)cc3n2)c1` [Example 0436], the IC50 (at human PI3Kα protein; in experiment [1]) was under 1000 nM in each case.

On to `CCOC(=O)N1CCN(CCCn2cc(-c3cnc4ccc(Nc5cc(C(C)C)cnn5)nc4c3)cn2)CC1` [Example 0437, Ethyl 4-(3-(4-(6-((5-isopropylpyridazin-3-yl)amino)-1,5-naphthyridin-3-yl)-1H-pyrazol-1-yl)propyl)piperazine-1-carboxylate], for which the IC50 (on human PI3Kα protein; in experiment [1]) was under 1000 nM throughout.

On to `CC(=O)N1CC(Cn2cc(-c3cnc4ccc(Nc5cc(C(C)C)cnn5)nc4c3)cn2)C1` [Example 0438, 1-(3-((4-(6-((5-isopropylpyridazin-3-yl)amino)-1,5-naphthyridin-3-yl)-1H-pyrazol-1-yl)methyl)azetidin-1-yl)ethanone], for which the IC50 (on human PI3Kα protein; in experiment [1]) was under 1000 nM throughout.

As for `CCn1cc(-c2cnc3ccc(Nc4cc(C(C)C)cnn4)nc3c2)cn1` [Example 0440, 7-(1-Ethyl-1H-pyrazol-4-yl)-N-(5-isopropylpyridazin-3-yl)-1,5-naphthyridine-2-amine], the IC50 (on human PI3Kα protein; in experiment [1]) was under 1000 nM in each case.

Turning to `CCCn1cc(-c2cnc3ccc(Nc4cc(C(C)C)cnn4)nc3c2)cn1` [Example 0441], the IC50 (on human PI3Kα protein; in experiment [1]) was under 1000 nM in each case.

Take `CC(C)c1cnnc(Nc2ccc3ncc(-c4cnn(C(C)C)c4)cc3n2)c1` [Example 0442]: the IC50 (at human PI3Kα protein; in experiment [1]) was under 1000 nM in each case.

With `CC(C)c1cnnc(Nc2ccc3ncc(-c4cnn(CCCN5CCN(c6ccccn6)CC5)c4)cc3n2)c1` [Example 0444], the IC50 (on human PI3Kα protein; in experiment [1]) was under 1000 nM throughout.

As for `CC(C)c1cnnc(Nc2ccc3ncc(-c4cnn(CCCN5CCN(c6ccncc6)CC5)c4)cc3n2)c1` [Example 0445], the IC50 (on human PI3Kα protein; in experiment [1]) was under 1000 nM each time.

`CC(C)c1cnnc(Nc2ccc3ncc(-c4cnn(CCCN5CCN(c6cccnc6)CC5)c4)cc3n2)c1` [Example 0446]: the IC50 (on human PI3Kα protein; in experiment [1]) was under 1000 nM each time.

As to `CC(C)c1cnnc(Nc2ccc3nccc(-c4cnn(C)c4)c3n2)c1` [Example 0447, N-(5-isopropylpyridazin-3-yl)-8-(1-methyl-1H-pyrazol-4-yl)-1,5-naphthyridine-2-amine], the IC50 at human PI3Kα protein is under 1000 nM; in experiment [1] it was 1000 to 10000 nM.

Consider `Cc1cnnc(Nc2ccc3nccc(-c4cnn(C)c4)c3n2)c1` [Example 0448, 8-(1-Methyl-1H-pyrazol-4-yl)-N-(5-methylpyridazin-3-yl)-1,5-naphthyridine-2-amine], for which the IC50 on human PI3Kα protein was under 1000 nM; in experiment [1], 1000 to 10000 nM.

Consider `CC(C)c1cnnc(Nc2ccc3ncc(-c4cnn(Cc5cscn5)c4)cc3n2)c1` [Example 0449], for which the IC50 (at human PI3Kα protein; in experiment [1]) was under 1000 nM throughout.

With `COc1cncc(-c2nn(C)cc2-c2cnc3ccc(Nc4cc(C(C)C)cnn4)nc3c2)c1` [Example 0451], the IC50 (on human PI3Kα protein; in experiment [1]) was under 1000 nM in each case.

Consider `COc1cccc(-c2nn(C)cc2-c2cnc3ccc(Nc4cc(C(C)C)cnn4)nc3c2)c1` [Example 0452], for which the IC50 (on human PI3Kα protein; in experiment [1]) was under 1000 nM throughout.

Regarding `COc1ccc(Cn2cc(-c3cnc4ccc(Nc5cc(C(C)C)cnn5)nc4c3)cn2)cn1` [Example 0453, N-(5-isopropylpyridazin-3-yl)-7-(1-((6-methoxypyridin-3-yl)methyl)-1H-pyrazol-4-yl)-1,5-naphthyridine-2-amine], the IC50 (at human PI3Kα protein; in experiment [1]) was under 1000 nM each time.

As for `COc1ncccc1Cn1cc(-c2cnc3ccc(Nc4cc(C(C)C)cnn4)nc3c2)cn1` [Example 0454], the IC50 (at human PI3Kα protein; in experiment [1]) was under 1000 nM in each case.

For the compound `Cc1cnnc(Nc2ccc3ncc(-c4cn(C)nc4-c4ccc(C#N)nc4)cc3n2)c1` [Example 0457], the figures for the IC50 (at human PI3Kα protein; in experiment [1]) were under 1000 nM and 10000 to 50000 nM, respectively.

For `COc1ccc(-c2nn(C)cc2-c2cnc3ccc(Nc4cc(C)cnn4)nc3c2)cn1` [Example 0458], the IC50 at human PI3Kα protein is under 1000 nM; in experiment [1] it was 10000 to 50000 nM.

As to `CC(=O)Nc1ccc(-c2nn(C)cc2-c2cnc3ccc(Nc4cc(C(C)C)cnn4)nc3c2)cn1` [Example 0459], the IC50 (on human PI3Kα protein; in experiment [1]) was under 1000 nM throughout.

With `CC(C)c1cnnc(Nc2ccc3ncc(-c4cn(C)nc4-c4ccc(N)nc4)cc3n2)c1` [Example 0461, 7-(3-(6-aminopyridin-3-yl)-1-methyl-1H-pyrazol-4-yl)-N-(5-isopropylpyridazin-3-yl)-1,5-naphthyridine-2-amine], the IC50 (at human PI3Kα protein; in experiment [1]) was under 1000 nM each time.

As to `c1cncc(Cn2cc(-c3cnc4ccc(Nc5cc(C6CC6)cnn5)nc4c3)cn2)c1` [Example 0463, N-(5-cyclopropylpyridazin-3-yl)-7-(1-(pyridin-3-ylmethyl)-1H-pyrazol-4-yl)-1,5-naphthyridine-2-amine], the IC50 (at human PI3Kα protein; in experiment [1]) was under 1000 nM each time.

As to `CC(C)c1cnnc(Nc2ccc3ncc(-c4cnn(Cc5ccc(N)nc5)c4)cc3n2)c1` [Example 0464], the IC50 (on human PI3Kα protein; in experiment [1]) was under 1000 nM throughout.

In the case of `CC(C)c1cnnc(Nc2ccc3ncc(-c4cnn(CCF)c4)cc3n2)c1` [Example 0466], the IC50 (on human PI3Kα protein; in experiment [1]) was under 1000 nM each time.

Turning to `CC(C)c1cnnc(Nc2ccc3ncc(-c4cnn(CC(F)F)c4)cc3n2)c1` [Example 0467], the IC50 (at human PI3Kα protein; in experiment [1]) was under 1000 nM each time.

For the compound `CC(C)c1cnnc(Nc2ccc3ncc(-c4cnn(CCCCl)c4)cc3n2)c1` [Example 0468], the IC50 (on human PI3Kα protein; in experiment [1]) was under 1000 nM throughout.

As for `CC(C)c1cnnc(Nc2ccc3ncc(-c4cn(C)nc4Nc4cccnc4)cc3n2)c1` [Example 0469], the IC50 (on human PI3Kα protein; in experiment [1]) was under 1000 nM each time.

On to `CC(=O)Nc1ccc(Cn2cc(-c3cnc4ccc(Nc5cc(C(C)C)cnn5)nc4c3)cn2)cc1` [Example 0470, N-(4-((4-(6-((5-isopropylpyridazin-3-yl)amino)-1,5-naphthyridin-3-yl)-1H-pyrazol-1-yl)methyl)phenyl)acetamide], for which the IC50 (at human PI3Kα protein; in experiment [1]) was under 1000 nM throughout.

As to `CC(=O)N1CCC(n2cc(-c3cnc4ccc(Nc5cc(C(C)C)cnn5)nc4c3)cn2)CC1` [Example 0478, 1-(4-(4-(6-((5-Isopropylpyridazin-3-yl)amino)-1,5-naphthyridin-3-yl)-1H-pyrazol-1-yl)piperidin-1-yl)ethanone], the IC50 (on human PI3Kα protein; in experiment [1]) was under 1000 nM each time.

In the case of `CC(C)c1cnnc(Nc2ccc3ncc(-c4cnn(C5CCN(CCO)CC5)c4)cc3n2)c1` [Example 0480, 2-(4-(4-(6-((5-Isopropylpyridazin-3-yl)amino)-1,5-naphthyridin-3-yl)-1H-pyrazol-1-yl)piperidin-1-yl)ethanol], the IC50 (on human PI3Kα protein; in experiment [1]) was under 1000 nM throughout.

`CC(C)c1cnnc(Nc2ccc3ncc(-c4cnn(C(C)(C)C)c4)cc3n2)c1` [Example 0481]: the IC50 was 1000 to 10000 nM at human PI3Kα protein and under 1000 nM in experiment [1].

On to `CC(C)c1cnnc(Nc2ccc3ncc(-c4cnn(CCC5CCOCC5)c4)cc3n2)c1` [Example 0483], for which the IC50 (on human PI3Kα protein; in experiment [1]) was under 1000 nM in each case.

Values taken from patent US9783536B2, “Nitrogen-containing heterocyclic compound or salt thereof” (FUJIFILM Corporation, priority 2013, dated 2017).
